Data: PubChem BioAssay (NCI)
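Dose response: 5 concentrations. Exposure: 48 h. Format: 96-well plates. Endpoint: linear interpolation; highest concentration if not reached. Here, GI50 denotes the concentration required for 50% inhibition of growth. Definition used: TGI = concentration required for complete inhibition of growth.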

Tests used:
Experiment in all cases: NCI tumour cell line growth inhibition, 48 h
HCT-116 colon = tested on: HCT-116 colon
HOP-62 NSCLC = tested on: HOP-62 NSCLC
NCI-H460 lung = tested on: NCI-H460 lung
SK-OV-3 ovarian = tested on: SK-OV-3 ovarian
COLO 205 colon = tested on: COLO 205 colon
MALME-3M melanoma = tested on: MALME-3M melanoma
K-562 leukemia = tested on: K-562 leukemia
DU-145 prostate = tested on: DU-145 prostate
LOX IMVI melanoma = tested on: LOX IMVI melanoma
HOP-92 NSCLC = tested on: HOP-92 NSCLC

## O=C1NN2CC(c3ccccc3)=NN=C2c2ccccc21
HCT-116 colon
  GI50: 17.4 µM
  TGI: 36.7 µM
HOP-62 NSCLC
  GI50: 35 µM
  TGI: > 100 µM
NCI-H460 lung
  GI50: 30.3 µM
  TGI: 92.6 µM
SK-OV-3 ovarian
  GI50: 24.2 µM
  TGI: 51 µM
COLO 205 colon
  GI50: 20.3 µM
  TGI: 41 µM
MALME-3M melanoma
  GI50: 32.1 µM
  TGI: 87.6 µM
K-562 leukemia
  GI50: 28.2 µM
  TGI: > 100 µM
DU-145 prostate
  GI50: 31.3 µM
  TGI: 99 µM
LOX IMVI melanoma
  GI50: 22.6 µM
  TGI: 47 µM

## CCN1CCN(CCC(=O)Nc2cccc(-n3cc(-c4ccncc4)c(-c4ccc(Cl)c(OC)c4)n3)c2)CC1
HCT-116 colon
  GI50: 0.374 µM
  TGI: 1.62 µM
HOP-62 NSCLC
  GI50: 0.697 µM
  TGI: 2.43 µM
NCI-H460 lung
  GI50: 0.361 µM
  TGI: 1.37 µM
SK-OV-3 ovarian
  GI50: 1.84 µM
  TGI: 7.67 µM
MALME-3M melanoma
  GI50: 0.765 µM
  TGI: 2.35 µM
DU-145 prostate
  GI50: 0.432 µM
  TGI: 5.96 µM
LOX IMVI melanoma
  GI50: 0.445 µM
  TGI: 1.66 µM
HOP-92 NSCLC
  GI50: 0.776 µM
  TGI: 6.43 µM

## CC(C)(C)CC(C)(C)c1ccc(OCCO)cc1
HCT-116 colon
  GI50: 3.86 µg/mL
  TGI: 14.5 µg/mL
HOP-62 NSCLC
  GI50: 3.75 µg/mL
  TGI: 16.3 µg/mL
NCI-H460 lung
  GI50: 2.95 µg/mL
  TGI: 16.4 µg/mL
SK-OV-3 ovarian
  GI50: 11.2 µg/mL
  TGI: 28.6 µg/mL
COLO 205 colon
  GI50: 4.69 µg/mL
  TGI: 15.4 µg/mL
K-562 leukemia
  GI50: 0.887 µg/mL
  TGI: > 75 µg/mL
DU-145 prostate
  GI50: 9.51 µg/mL
  TGI: 20.6 µg/mL
LOX IMVI melanoma
  GI50: 2.19 µg/mL
  TGI: 11.2 µg/mL

## CCOC(=O)c1noc2c1CCc1c-2cn(Cc2ccc(OC)cc2)c1-c1cc(OC)c(OC)c(OC)c1
HCT-116 colon
  GI50: 0.399 µM
  TGI: > 100 µM
HOP-62 NSCLC
  GI50: 2.53 µM
  TGI: > 100 µM
NCI-H460 lung
  GI50: 1 µM
  TGI: > 100 µM
SK-OV-3 ovarian
  GI50: 5.23 µM
  TGI: > 100 µM
COLO 205 colon
  GI50: 1.77 µM
  TGI: 7.82 µM
DU-145 prostate
  GI50: 2.32 µM
  TGI: 6.14 µM
LOX IMVI melanoma
  GI50: 0.646 µM
  TGI: > 100 µM
HOP-92 NSCLC
  GI50: 2.72 µM
  TGI: > 100 µM

## COc1cccc2c1nc(C(F)F)n2-c1nc(-c2ccc(NS(=O)(=O)CCN(C)C)cc2)nc(N2CCOCC2)n1
HCT-116 colon
  GI50: 0.456 µM
  TGI: 2.98 µM
HOP-62 NSCLC
  GI50: 0.123 µM
  TGI: 6.56 µM
NCI-H460 lung
  GI50: 0.0883 µM
  TGI: 1.33 µM
SK-OV-3 ovarian
  GI50: 0.0396 µM
  TGI: 0.214 µM
COLO 205 colon
  GI50: 0.0908 µM
  TGI: 2.64 µM
MALME-3M melanoma
  GI50: 0.0333 µM
  TGI: 0.317 µM
K-562 leukemia
  GI50: 1.2 µM
  TGI: 11.4 µM
DU-145 prostate
  GI50: 0.162 µM
  TGI: 11.7 µM
LOX IMVI melanoma
  GI50: 0.176 µM
  TGI: 2.13 µM

## O=C(CCc1n[nH]c(=S)o1)Nc1cc(Cl)ccc1Cl
HCT-116 colon
  TGI: 30.8 µM
HOP-62 NSCLC
  TGI: > 100 µM
NCI-H460 lung
  TGI: > 100 µM
SK-OV-3 ovarian
  TGI: > 100 µM
COLO 205 colon
  TGI: > 100 µM
MALME-3M melanoma
  TGI: > 100 µM
K-562 leukemia
  TGI: 52.1 µM
HOP-92 NSCLC
  TGI: > 100 µM

## CCN(CC)CC(=O)NC1c2ccccc2Oc2ccccc21
HCT-116 colon
  TGI: > 100 µM
HOP-62 NSCLC
  TGI: > 100 µM
NCI-H460 lung
  TGI: > 100 µM
SK-OV-3 ovarian
  TGI: > 100 µM
COLO 205 colon
  TGI: > 100 µM
K-562 leukemia
  TGI: > 100 µM
LOX IMVI melanoma
  TGI: > 100 µM

## O=c1[nH]c2ccccc2n1C1CCNCC1
HCT-116 colon
  GI50: > 100 µM
  TGI: > 100 µM
HOP-62 NSCLC
  GI50: > 100 µM
  TGI: > 100 µM
NCI-H460 lung
  GI50: > 100 µM
  TGI: > 100 µM
SK-OV-3 ovarian
  GI50: > 100 µM
  TGI: > 100 µM
COLO 205 colon
  GI50: > 100 µM
  TGI: > 100 µM
K-562 leukemia
  GI50: > 100 µM
  TGI: > 100 µM
DU-145 prostate
  GI50: > 100 µM
  TGI: > 100 µM
LOX IMVI melanoma
  GI50: > 100 µM
  TGI: > 100 µM

## Cn1cc(C2NC(=O)c3ccccc3N2)c2ccccc21 (stereo unspecified)
HCT-116 colon
  TGI: > 20.4 µM
HOP-62 NSCLC
  TGI: > 100 µM
NCI-H460 lung
  TGI: > 42.8 µM
SK-OV-3 ovarian
  TGI: 40.3 µM
MALME-3M melanoma
  TGI: > 29.7 µM
LOX IMVI melanoma
  TGI: > 89.8 µM
HOP-92 NSCLC
  TGI: > 100 µM

## O=C(/C=C/c1ccccc1)NC1C=Nc2ccc([N+](=O)[O-])cc2NC1=O (stereo unspecified)
HCT-116 colon
  TGI: > 100 µM
HOP-62 NSCLC
  TGI: > 100 µM
NCI-H460 lung
  TGI: > 100 µM
SK-OV-3 ovarian
  TGI: > 100 µM
COLO 205 colon
  TGI: > 100 µM
MALME-3M melanoma
  TGI: > 100 µM
K-562 leukemia
  TGI: > 100 µM
LOX IMVI melanoma
  TGI: > 100 µM
HOP-92 NSCLC
  TGI: > 100 µM

## COC(=O)C(=O)C(C#N)c1nc2ccccc2s1 (stereo unspecified)
HCT-116 colon
  TGI: > 100 µM
HOP-62 NSCLC
  TGI: > 100 µM
NCI-H460 lung
  TGI: > 100 µM
SK-OV-3 ovarian
  TGI: > 100 µM
COLO 205 colon
  TGI: > 100 µM
MALME-3M melanoma
  TGI: > 100 µM
K-562 leukemia
  TGI: > 100 µM
LOX IMVI melanoma
  TGI: > 100 µM
HOP-92 NSCLC
  TGI: > 100 µM

## Cn1cc(C2=C(c3ccsc3)C(=O)NC2=O)c2ccccc21
HCT-116 colon
  GI50: > 25 µM
  TGI: > 25 µM
HOP-62 NSCLC
  GI50: > 25 µM
  TGI: > 25 µM
NCI-H460 lung
  GI50: > 25 µM
  TGI: > 25 µM
SK-OV-3 ovarian
  GI50: > 25 µM
  TGI: > 25 µM
COLO 205 colon
  GI50: > 25 µM
  TGI: > 25 µM
MALME-3M melanoma
  GI50: > 25 µM
  TGI: > 25 µM
K-562 leukemia
  GI50: > 25 µM
  TGI: > 25 µM
DU-145 prostate
  GI50: > 25 µM
  TGI: > 25 µM
LOX IMVI melanoma
  GI50: > 25 µM
  TGI: > 25 µM

## Cc1ccc(S(=O)c2ccccc2[N+](=O)[O-])cc1 (stereo unspecified)
HOP-62 NSCLC
  TGI: > 100 µM
NCI-H460 lung
  TGI: > 100 µM
SK-OV-3 ovarian
  TGI: > 100 µM
MALME-3M melanoma
  TGI: > 100 µM
K-562 leukemia
  TGI: > 100 µM
LOX IMVI melanoma
  TGI: > 100 µM
HOP-92 NSCLC
  TGI: > 100 µM

## CN(C)CC1CC/C(=C\c2ccc(Cl)c(Cl)c2)C1=O (stereo unspecified)
HCT-116 colon
  TGI: > 61.7 µM
HOP-62 NSCLC
  TGI: > 95.1 µM
NCI-H460 lung
  TGI: 36.1 µM
SK-OV-3 ovarian
  TGI: > 100 µM
COLO 205 colon
  TGI: > 51.8 µM
MALME-3M melanoma
  TGI: > 100 µM
K-562 leukemia
  TGI: > 27.1 µM
LOX IMVI melanoma
  TGI: 18.4 µM
HOP-92 NSCLC
  TGI: 48.2 µM

## CC(C)(CN1CCCCC1)C(=O)/C=C/c1ccccc1
HCT-116 colon
  TGI: 28.6 µM
HOP-62 NSCLC
  TGI: 61.3 µM
NCI-H460 lung
  TGI: 66.9 µM
SK-OV-3 ovarian
  TGI: 57.3 µM
COLO 205 colon
  TGI: 40.9 µM
MALME-3M melanoma
  TGI: 30.3 µM
K-562 leukemia
  TGI: 24.9 µM
LOX IMVI melanoma
  TGI: 41.3 µM

## CC(C)=CCc1cc2c(cc1O)C1=C(C(=O)C3=C(NCCS3(=O)=O)C1=O)C(C=C(C)C)O2 (stereo unspecified)
HCT-116 colon
  GI50: 5.84 µM
  TGI: > 16.7 µM
HOP-62 NSCLC
  GI50: 8.59 µM
  TGI: > 16.7 µM
NCI-H460 lung
  GI50: 5.35 µM
  TGI: > 16.7 µM
SK-OV-3 ovarian
  GI50: > 16.7 µM
  TGI: > 16.7 µM
COLO 205 colon
  GI50: 5.53 µM
  TGI: > 16.7 µM
MALME-3M melanoma
  GI50: 1.68 µM
  TGI: 4.68 µM
K-562 leukemia
  GI50: 5.02 µM
  TGI: > 16.7 µM
LOX IMVI melanoma
  GI50: 4.48 µM
  TGI: > 16.7 µM
HOP-92 NSCLC
  GI50: 6.89 µM
  TGI: > 16.7 µM

## O=C([CH-]C(=O)c1ccccc1)c1ccccc1.O=C([CH-]C(=O)c1ccccc1)c1ccccc1.O=C([CH-]C(=O)c1ccccc1)c1ccccc1.[Ga+3]
HCT-116 colon
  GI50: 23.4 µM
  TGI: > 100 µM
NCI-H460 lung
  GI50: 16.3 µM
  TGI: > 100 µM
SK-OV-3 ovarian
  GI50: 63.5 µM
  TGI: > 100 µM
COLO 205 colon
  GI50: > 100 µM
  TGI: > 100 µM
MALME-3M melanoma
  GI50: > 100 µM
  TGI: > 100 µM
K-562 leukemia
  GI50: 30.9 µM
  TGI: > 100 µM
LOX IMVI melanoma
  GI50: 18 µM
  TGI: > 100 µM
HOP-92 NSCLC
  GI50: > 100 µM
  TGI: > 100 µM
